From BindingDB's records for PubMed 1513320 (Synaptic Pharmaceutical, 1992)

Target: 5-hydroxytryptamine receptor 1E (Homo sapiens, UniProt P28566)
Sequence (P28566 whole entry): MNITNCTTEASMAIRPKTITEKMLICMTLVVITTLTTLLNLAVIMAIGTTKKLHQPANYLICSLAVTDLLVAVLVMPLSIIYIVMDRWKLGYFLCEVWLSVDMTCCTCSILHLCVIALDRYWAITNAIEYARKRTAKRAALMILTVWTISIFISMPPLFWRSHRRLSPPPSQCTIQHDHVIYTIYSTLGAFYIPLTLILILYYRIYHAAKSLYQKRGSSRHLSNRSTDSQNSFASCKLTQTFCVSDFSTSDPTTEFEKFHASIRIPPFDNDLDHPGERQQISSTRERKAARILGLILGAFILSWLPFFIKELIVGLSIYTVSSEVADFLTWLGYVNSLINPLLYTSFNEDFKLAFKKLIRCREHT

| SMILES | Ki [µM] |
| --- | --- |
| O=C(c1ccc(F)cc1)C1CCN(CCn2c(=O)[nH]c3ccccc3c2=O)CC1 [3-(2-{4-[(4-fluorophenyl)carbonyl]piperidin-1-yl}ethyl)-1,2,3,4-tetrahydroquinazoline-2,4-dione] | > 10 |
| CC(CO)NC(=O)C1C=C2c3cccc4[nH]cc(c34)CC2N(C)C1 (stereo not drawn) [CAS_60-79-7] | 0.088 |
| CCC(=O)c1ccc(N)cc1 [CAS_6270] | > 10 |
| COC(=O)[C@@H]1[C@H]2C[C@H]3c4[nH]c5ccccc5c4CCN3C[C@@H]2CC[C@@H]1O [yohimbic acid methyl ester] | 3.43 |
| COc1cc(N)c(Cl)cc1C(=O)NC1CN2CCC1CC2 (stereo not drawn) [ZACOPRIDE,R] | > 10 |
| CC(C)NCC(O)COc1cccc2[nH]ccc12 (stereo not drawn) [LB-46] | > 10 |
| NCCc1c[nH]c2ccc(C(N)=O)cc12 [[3H]-5-carboxamidotryptamine] | > 10 |
| Cn1cc(CCN)c2cc(O)ccc21 [5-HT,omega-N-Me] | 0.121 |
